Assay results: patent publication US10987317B2, “Inhibition of glutaminase C” (Cornell University, priority 2009, dated 2021)
Entries after “also recorded” stand apart in the source; their conditions may differ.

Tests used:
normal NIH 3T3 cells = assay: Growth and morphology of control cells; type: cell-based; conditions: 10% calf serum; 5-10 μM
Protocol: FIGS. 1A-E illustrate that the small molecule 968 inhibiting cellular transformation. […] Cells were fixed and stained with crystal violet for counting of foci. Right: 968 was serially diluted (10, 5, 2.5, and 1.25 μM) and evaluated for its ability to inhibit focus formation. […] After 6 days, the cells are counted. 100% represents the number of Dbl-transformed cells counted in the absence of 968 (27.5×10^4 cells). Data represent the average of 3 experiments (±s.d.). […] At the indicated times, the cells are counted. Data represent the average of 3 experiments (±s.d.).

[1] = molecular target: T1, E. coli-expressed mouse ortholog of human GAC (Mus musculus, UniProt D3Z7P3); assay: Recombinant glutaminase activity assay; type: biochemical
T1 construct: A plasmid encoding mouse GAC (residues 128-603) was cloned into the pET28a vector; His-tag (N, cleaved yes); made in house; host or cells: E. coli (pET28a)
T1 sequence (D3Z7P3 128-603 isoform D3Z7P3-2): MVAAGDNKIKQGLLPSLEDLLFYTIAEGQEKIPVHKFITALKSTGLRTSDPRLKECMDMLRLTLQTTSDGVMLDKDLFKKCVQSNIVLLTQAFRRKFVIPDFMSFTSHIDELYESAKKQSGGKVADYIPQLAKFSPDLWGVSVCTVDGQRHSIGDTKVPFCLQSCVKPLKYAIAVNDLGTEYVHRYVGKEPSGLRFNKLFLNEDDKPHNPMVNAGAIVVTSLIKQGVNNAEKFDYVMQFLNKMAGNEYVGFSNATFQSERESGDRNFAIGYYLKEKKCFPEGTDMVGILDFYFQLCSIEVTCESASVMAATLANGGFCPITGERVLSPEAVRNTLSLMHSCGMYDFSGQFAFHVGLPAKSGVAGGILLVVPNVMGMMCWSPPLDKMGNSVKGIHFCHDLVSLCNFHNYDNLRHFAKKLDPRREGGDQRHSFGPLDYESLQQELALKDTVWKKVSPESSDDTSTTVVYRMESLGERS
Protocol: 100%=620 moles of glutamine hydrolyzed per minute per mole of enzyme. Data represent the average of 3 experiments (±s.d.). […] Following precipitation of the beads and re-suspension, the samples are analyzed by Western blotting with anti-V5 antibody. […] Data represent the average of 3 experiments (±s.d.). […] Data represent the average of 3 experiments (±s.d.). […] Data represent the average of 3 experiments (±s.d.). FIG. 3E NIH 3T3 cells transiently expressing Dbl are assayed for focus formation in the presence of 10 μM 968 alone or together with […] dimethyl α-ketoglutarate. […] 100%=680 nM glutamine hydrolyzed per minute per 10^5 cells. Data are the average of 3 experiments (=s.d.). […] 100%=750 nM glutamine hydrolyzed per minute per 10^5 cells. Data represent the average of 3 experiments (±s.d.).
The activity of the E. coli-expressed recombinant mouse ortholog of human GAC are assayed in the presence of 0 (●), 10 (∇) or 20 (▪) μM 968 and inorganic phosphate in the form of dipotassium hydrogen phosphate. […] The data are plotted as GA activity as function of varying concentrations of glutamine or inorganic phosphate. The data are the average of 3 experiments and are plotted as mean±SEM.
Glutaminase activity assays were performed on recombinant enzyme as previously described (Kenny et al., “Bacterial Expression, Purification and Characterization of Rat Kidney-Type Mitochondrial Glutaminasc,” Protein Expr. Purif 31:140-148 (2003), which is hereby incorporated by reference in its entirety). A plasmid encoding mouse GAC (residues 128-603) was cloned into the pET28a vector and the protein was expressed with an N-terminal histidine (His)-tag. The tag was cleaved using thrombin and the protein was further purified by anion-exchange and gel-filtration chromatography. […] The reaction mixture was incubated at room temperature for 45 minutes and the absorbance at 340 nm was recorded for each sample against a water blank. The absorbance of the sample with just the cocktail mixture was subtracted from each reading to calculate the activity of the enzyme.

[2] = test system: NIH 3T3 cells stably expressing Cdc42(F28L), Rac(F28L), RhoC(F30L); assay: Transforming activity of constitutively active Rho GTPase mutants; type: cell-based; conditions: 10 μM
Protocol: FIGS. 2A-G illustrate effects of 968 on the transforming activity of constitutively active Rho GTPases and human breast cancer cells. […] Cells are scored after 14 days and plotted as the percentage of the total number of colonies greater than […] in diameter. Data represent the average of 3 experiments (±s.d.). […] Data represent the average of 3 experiments (±s.d.). […] Data represent the average of 3 experiments (±s.d.). […] After 24 hours at 37° C. the migratory cells are fixed, stained with GIEMSA, and counted. Data represent the average of 3 experiments (±s.d.). […] Data represent the average of 3 experiments (±s.d.). […] Data represent the average of 3 experiments (±s.d.). […] Data represent the average of 3 experiments (±s.d.).

CN(C)c1ccc(C2Nc3ccc4ccccc4c3C3=C2C(=O)CC(C)(C)C3)cc1Br (stereo not shown) [Compound 968, 5-[3-bromo-4-(dimethylamino)phenyl]-2,2-dimethyl-2,3,5,6-tetrahydrobenzo[a]]
effect on growth or morphology of normal NIH 3T3 cells (normal NIH 3T3 cells): no significant effects; also recorded: inability
inhibition of enzymatic activity of purified GAC [1]: inhibits
mode of inhibition versus glutamine and inorganic phosphate ([1]; 0, 10 or 20 μM): neither competitive versus substrate (glutamine) nor inorganic phosphate
colony formation in soft-agar [2]: blocking
growth under low serum conditions ([2]; 1% calf serum): blocking
growth to high density ([2]; 10% calf serum, 6 days): blocking
invasive activity ([2]; Matri-gel, 24 hours): inhibiting
